# Measurements: patent US20240158446A1, “CYCLIC COMPOUND HAVING SELECTIVE INHIBITORY ACTION ON KRAS OVER HRAS AND NRAS” (CHUGAI SEIYAKU KABUSHIKI KAISHA, priority 2021, published 2024)
# Like-named read-outs stand apart in the source and are kept apart here. *1 amine or outer side, *2 acyl side, *3 side chain or, on linkers, in order; H or OH if unused. Where a SMILES comes first, the peptide text is derived from it. Bridges are numbered along the chain shown (N, C = ends). [ ]: non-standard residue; d: D form. The star is where a group is joined. hPhe(3,5-F2-4-CF3) = N[C@@H](CCc1cc(F)c(C(F)(F)F)c(F)c1)C(=O)O; NPrPhe(4-CF3) = CCCN[C@@H](Cc1ccc(C(F)(F)F)cc1)C(=O)O; NMeGly(cPent) = CN[C@H](C(=O)O)C1CCCC1; X8 = C[C@@](N[*:1])(C(=O)[*:2])C1CC1; NMeD = CN[C@@H](CC(=O)O)C(=O)O; NMeL = CN[C@@H](CC(C)C)C(=O)O; Morpholide = C1CN(*)CCO1; Aze = O=C(O)[C@@H]1CCN1; Sar = CNCC(=O)O
# What was measured:
# [1] = biological target: GDP-bound NRAS wild-type protein (Homo sapiens, UniProt P01111); test: Binding to NRAS by surface plasmon resonance (SPR), Single Cycle Kinetics; details: for NRAS/KRAS (ratio of KD value for NRAS to KD value for KRAS) / NRAS/KRAS (ratio of KD value with respect to NRAS to KD value with respect to KRAS): SPR, GDP-bound NRAS wild-type protein vs GDP-bound KRAS wild-type protein
# [2] = biological target: GDP-bound HRAS wild-type protein (Homo sapiens, UniProt P01112); test: Binding to HRAS by surface plasmon resonance (SPR), Single Cycle Kinetics; details: for HRAS/KRAS (ratio of KD value for HRAS to KD value for KRAS) / HRAS/KRAS (ratio of KD value with respect to HRAS to KD value with respect to KRAS): SPR, GDP-bound HRAS wild-type protein vs GDP-bound KRAS wild-type protein
# [3] = biological target: GDP-bound KRAS wild-type protein (Homo sapiens, UniProt P01116); test: Binding to KRAS by surface plasmon resonance (SPR), Single Cycle Kinetics; details: GDP-bound KRAS wild-type protein, read-out: KRAS KD
# [4] = SPR Single Cycle Kinetics, 1:1 binding model
# Chain of GDP-bound NRAS wild-type protein (P01111 whole entry): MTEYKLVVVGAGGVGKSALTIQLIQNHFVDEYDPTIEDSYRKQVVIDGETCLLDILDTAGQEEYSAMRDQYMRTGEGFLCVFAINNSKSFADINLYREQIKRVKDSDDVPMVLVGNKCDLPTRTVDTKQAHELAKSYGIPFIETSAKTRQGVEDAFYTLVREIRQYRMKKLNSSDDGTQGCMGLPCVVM
# Chain of GDP-bound HRAS wild-type protein (P01112 whole entry): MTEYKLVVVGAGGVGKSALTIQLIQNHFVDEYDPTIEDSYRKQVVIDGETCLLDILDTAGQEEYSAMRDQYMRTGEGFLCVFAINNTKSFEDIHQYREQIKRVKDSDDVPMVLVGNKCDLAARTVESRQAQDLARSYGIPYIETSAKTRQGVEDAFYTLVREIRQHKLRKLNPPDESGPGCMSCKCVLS
# Chain of GDP-bound KRAS wild-type protein (P01116 whole entry): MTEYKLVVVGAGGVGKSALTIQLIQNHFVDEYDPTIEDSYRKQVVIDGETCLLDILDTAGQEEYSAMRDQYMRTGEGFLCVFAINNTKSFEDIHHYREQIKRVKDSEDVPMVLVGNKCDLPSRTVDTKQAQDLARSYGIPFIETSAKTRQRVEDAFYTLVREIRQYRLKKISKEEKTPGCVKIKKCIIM
Compound,"Kd ([3]; SPR, Single Cycle Kinetics)","Kd [3, 4]",NRAS/KRAS (ratio of KD value for NRAS to KD value for KRAS) [1],HRAS/KRAS (ratio of KD value for HRAS to KD value for KRAS) [2],NRAS/KRAS (ratio of KD value with respect to NRAS to KD value with respect to KRAS) [1],HRAS/KRAS (ratio of KD value with respect to HRAS to KD value with respect to KRAS) [2],"NRAS/KRAS (ratio of KD value with respect to GDP-bound NRAS wild-type protein to KD value with respect to KRAS) ([1]; SPR KD ratio NRAS/KRAS, class symbols)","HRAS/KRAS (ratio of KD value with respect to GDP-bound HRAS wild-type protein to KD value with respect to KRAS) ([2]; SPR KD ratio HRAS/KRAS, class symbols)"
"CCCN1C(=O)[C@@H]2CCN2C(=O)CN(C)C(=O)[C@H]([C@@H](C)CC)NC(=O)[C@H](CC(C)C)N(C)C(=O)C[C@@H](C(=O)N2CCOCC2)N(C)C(=O)[C@H](C2CCCC2)N(C)C(=O)[C@](C)(C2CC2)NC(=O)[C@@H]2CCCN2C(=O)[C@H](CCc2cc(F)c(C(F)(F)F)c(F)c2)NC(=O)CN(C)C(=O)[C@@H]1Cc1ccc(C(F)(F)F)cc1 [PP0791] ([NMeL]I[Sar][Aze][NPrPhe(4-CF3)][Sar][hPhe(3,5-F2-4-CF3)]P[X8][NMeGly(cPent)][NMeD]-Morpholide; lactam N-11)",–,0.98 nM,–,–,C (A compound having a KD ratio of 0.1 or more and less than 3 is denoted as C),B (a compound having 3 or more and less than 10 is denoted as B),–,–
CCO[C@@H]1C[C@H]2C(=O)NC3(CCC3)C(=O)N(C)[C@@H](C3CCCC3)C(=O)N(C)[C@H](C(=O)N(C)C)CC(=O)N(C)[C@@H](CC(C)C)C(=O)N[C@@H]([C@@H](C)CC)C(=O)N(C)CC(=O)N(C)[C@H]3CCCCN(C3=O)[C@@H](Cc3ccc(C(F)(F)F)cc3)C(=O)N(C)CC(=O)N[C@@H](CCc3cc(F)c(C(F)(F)F)c(F)c3)C(=O)N2C1 [PP0580],–,0.015 nM,–,–,C (A compound having a KD ratio of 0.1 or more and less than 3 is denoted as C),C (A compound having a KD ratio of 0.1 or more and less than 3 is denoted as C),–,–
CC[C@H](C)[C@@H]1NC(=O)[C@H](CC)N(C)C(=O)C[C@@H](C(=O)N2CCOCC2)N(C)C(=O)[C@H](C2CCCC2)N(C)C(=O)C2(CCCC2)NC(=O)[C@@H]2CCCN2C(=O)[C@H](CCc2cc(F)c(C(F)(F)F)c(F)c2)NC(=O)CN(C)C(=O)[C@H](Cc2ccc(C(F)(F)F)cc2)N2CCCCC[C@@H](C2=O)N(C)C(=O)CN(C)C1=O [PP0488],–,2.8 nM,–,–,A (a compound having 10 or more and less than 20 is denoted as A),B (a compound having 3 or more and less than 10 is denoted as B),–,–

# The next lines start with results.
"Kd ([3]; SPR, Single Cycle Kinetics)","Kd [3, 4]",Compound,NRAS/KRAS (ratio of KD value for NRAS to KD value for KRAS) [1],HRAS/KRAS (ratio of KD value for HRAS to KD value for KRAS) [2],NRAS/KRAS (ratio of KD value with respect to NRAS to KD value with respect to KRAS) [1],HRAS/KRAS (ratio of KD value with respect to HRAS to KD value with respect to KRAS) [2],"NRAS/KRAS (ratio of KD value with respect to GDP-bound NRAS wild-type protein to KD value with respect to KRAS) ([1]; SPR KD ratio NRAS/KRAS, class symbols)","HRAS/KRAS (ratio of KD value with respect to GDP-bound HRAS wild-type protein to KD value with respect to KRAS) ([2]; SPR KD ratio HRAS/KRAS, class symbols)"
3.8 nM,–,CCC[C@H]1C(=O)N[C@@H]([C@@H](C)CC)C(=O)N(C2CC2)CC(=O)N(C)[C@H]2C/C=C\CCN(C2=O)[C@@H](CC2CCC(F)(F)CC2)C(=O)N(C)CC(=O)N[C@@H](CCc2ccc(C(F)(F)F)c(OC)c2)C(=O)N2C[C@H](OCC)C[C@H]2C(=O)N(C)C2(CCC2)C(=O)N(C)[C@@H](C(CC)CC)C(=O)N(C)[C@H](C(=O)N(C)C)CC(=O)N1C [PP2349],A (a compound having 10 or more and less than 20 is denoted as A),A (a compound having 10 or more and less than 20 is denoted as A),–,–,–,–
0.26 nM,–,CCO[C@@H]1C[C@H]2C(=O)NC3(CCC3)C(=O)N(C)[C@@H](C(CC)CC)C(=O)N(C)[C@H](C(=O)N3CCCC3)CC(=O)N(C)[C@H]3CCCCC/C=C/c4ccc(cc4)C[C@@H](C(=O)N(C)CC(=O)N[C@@H](CCc4ccc(Cl)c(Cl)c4)C(=O)N2C1)N1CC/C=C\C[C@@H](C1=O)N(C)C(=O)CN(C)C(=O)[C@H]([C@@H](C)CC)NC3=O [PP3052],AA (a compound having 20 or more is denoted as AA),A (a compound having 10 or more and less than 20 is denoted as A),–,–,–,–
–,0.052 nM,CCC[C@H]1C(=O)N[C@@H]([C@@H](C)CC)C(=O)N(C)CC(=O)N(C)[C@H]2C/C=C\CCN(C2=O)[C@@H](Cc2ccc(C(F)(F)F)cc2)C(=O)N(C)CC(=O)N[C@@H](CCc2cc(Cl)c3sccc3c2)C(=O)N2C[C@H](OCC)C[C@H]2C(=O)NC2(CC(C)(C)C2)C(=O)N(C)[C@@H](C2CCCC2)C(=O)N(C)[C@H](C(=O)N(C)C)CC(=O)N1C [PP2946],–,–,–,–,A (a compound having 10 or more and less than 20 is denoted as A),A (a compound having 10 or more and less than 20 is denoted as A)
